Data set [1] can be described thus: Crystal form change after drying the sample open at room temperature overnight. Type of data set: physicochemical. The protocol: About 15 mg of crystal Form A of formula (II-1) compound was weighed to add into a 3 mL vial, then adding 1.0 mL MeOH/MTBE (1:1, v/v), stirring at 50° C. for equilibrating about 1 hour, and then filtering to obtain the supernatant.
About 15 mg of crystal Form A of formula (II-1) compound was weighed to add into a 20 mL vial, then dissolving the solids completely with 0.2-1.0 mL MeOH (filtering out the undissolved sample by 0.45 m PTFE filter to obtain clear solution).

The target in the next data set is T1, GLP-1 receptor (Homo sapiens, UniProt P43220).
T1 construct: host or cells: 'GLP-1 cell' constructed cell strain
T1 sequence (P43220 24-463): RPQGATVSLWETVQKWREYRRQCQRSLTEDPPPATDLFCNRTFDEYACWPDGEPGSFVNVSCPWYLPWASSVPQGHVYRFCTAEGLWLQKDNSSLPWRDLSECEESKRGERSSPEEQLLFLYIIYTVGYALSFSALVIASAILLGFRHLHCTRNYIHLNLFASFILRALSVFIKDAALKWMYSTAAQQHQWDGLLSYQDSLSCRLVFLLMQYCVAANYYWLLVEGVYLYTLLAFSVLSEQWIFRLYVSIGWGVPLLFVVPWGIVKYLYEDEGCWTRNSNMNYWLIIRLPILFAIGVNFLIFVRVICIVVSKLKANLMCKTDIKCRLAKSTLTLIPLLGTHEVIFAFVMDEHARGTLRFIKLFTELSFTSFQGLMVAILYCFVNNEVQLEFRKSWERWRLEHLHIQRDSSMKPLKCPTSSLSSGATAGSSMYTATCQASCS
Description: Detection of cell viability in vitro (cAMP detection in GLP-1 cells). Format: cell-based. The protocol:
OptiPlate-384, White, PerkinElmer (Cat #6007290); 384 well plate for Echo, Labcyte (Cat #P-05525); EnVision, PerkinElmer; Vi-cell counter, Beckman (Cat # Vi-CELL™ XR Cell Viability Analyzer)
The compound was prepared to a working concentration of […] with DMSO. In this test, the use amount of each sample is 5 μL.
Preparation of cAMP detection reagent: 250 μL cAMP-D2, and 250 μL anti-cAMP cryptate reagent were added to 4 mL lysis buffer, then mixing well gently.
The compound to be tested was diluted 3 times at 10 points, the initial concentration was 30 M; and the dilution was completed by Bravo plateform. […]
• 1) A GLP-1 cell cryopreservation tube was quickly thawed in warm water at 37° C. 2) The cell suspension was transferred to a 15 mL Transfer centrifuge tube, then gently rinsing with 10 mL HBSS. • 3) The centrifuge tube was centrifuged at room temperature and 1000 rpm for 1 min. • 4) The supernatant was discarded. • 5) The cells at the bottom were gently dispersed and washed with 10 mL HBSS, then centrifuging to obtain cell sediment, and resuspending the cells with experimental buffer. • 6) Cell density and viability were measured by Vi-cell counter. • 7) GLP-1 cells were diluted with experimental buffer to a concentration of 2.0*10^5/mL. • 8) 100 nL of diluted cell suspension was transferred into OptiPlate-384 plate. • 9) The cells were incubated at room temperature for 30 min. […]

Data set [2] is described as follows: Study on DMPK in rats (oral, single administration). Type of data set: in vivo. The note with it: rat, male SD rats, oral 5 mg/kg, plasma. The protocol:
Male SD rats were used as test animals. After single administration, the plasma concentration of the compound was measured, and the pharmacokinetic behavior was evaluated.
Two healthy adult male SD rats were selected as the oral group. In the oral group, the vehicle was 20% PEG400/10% solutol/70% water; after the compound to be tested was mixed with the vehicle, 0.5 mg/mL clear solution was prepared by vortex and ultrasound. After oral administration at 5 mg/kg, the whole blood of rat was collected for a certain period of time to prepare plasma; then the drug concentration was analyzed by LC-MS/MS method, and the pharmacokinetic parameters were calculated by Phoenix WinNonlin software (Pharsight, USA).

Data set [3] is described as follows: Study on DMPK in cynomolgus monkeys (oral, single administration). The note with it: cynomolgus monkey, male cynomolgus monkeys, oral 20 mg/kg, plasma. Format: in vivo. The protocol:
Male cynomolgus monkeys were used as test animals. After single administration, the plasma concentration of the compound was measured, and the pharmacokinetic behavior was evaluated.
Two healthy male cynomolgus monkeys were selected as a group. In the oral group, the vehicle was 20% HP-β-CD aqueous solution; after the compound to be tested was mixed with the vehicle, 4 mg/mL approximately clear solution was prepared by vortex and ultrasound. After oral administration at 20 mg/kg, the whole blood of cynomolgus monkey was collected for a certain period of time to prepare plasma; then the drug concentration was analyzed by LC-MS/MS method, and the pharmacokinetic parameters were calculated by Phoenix WinNonlin software (Pharsight, USA).

Data set [4] is described as follows: Solid stability of crystal forms under accelerated conditions, XRPD detection. Format: physicochemical. To be noted: for Crystal form: 75% RH, open, XRPD detection.
Data set [5] in a line: Dynamic vapor sorption (DVS) hygroscopicity study of the crystal forms. Type of data set: physicochemical. The protocol:
The dynamic vapor sorption (DVS) curve is collected on the DVS Intrinsic plus by SMS (surface measurement systems). The relative humidity at 25° C. is corrected by the deliquescence point of lithium chloride (LiCl), magnesium nitrate [Mg(NO3)2] and potassium chloride (KCl).
The test parameters are as follows:
The hygroscopicity evaluation is classified as follows:
The specific results are shown as the DVS spectrums in FIGS. 27-29.

The mark [6] stands for this setting: read-out: F % (oral bioavailability).

SMILES strings stand for the structures. pEC50: −log10 of the molar value.

Turning to `O=C(O)c1cc2c(nc(CN3CC=C(c4cccc(OCc5ccc(Cl)cc5F)n4)CC3)n2C[C@@H]2CCO2)s1` [crystal Form B], the “crystal form after drying open at room temperature overnight” value in data set [1] is given as “transformed into crystal Form E”.
The pEC50 is the negative decadic logarithm of the EC50, by convention in mol/L. In general, Cmax refers to the peak of the concentration-time curve. The term AUC(0-t) denotes the area under the concentration-time curve up to a stated or last time point. High values mean high exposure, low ones low exposure. In general, bioavailability refers to dose-corrected exposure relative to a reference, in per cent. For `O=C(O)c1cc2c(nc(CN3CC=C(c4cccc(OCc5ccc(Cl)cc5F)n4)CC3)n2C[C@@H]2CCO2)s1` [compound of formula (I)], the pEC50 on GLP-1 receptor (GLP-1 target in HEK293 host cell, cAMP detection, read-out: Human-GLP1, EC50) is 9.43. Besides, at GLP-1 receptor (cAMP, GLP-1 cells), the “ability to stimulate GLP-1 receptor” value was “better ability to stimulate GLP-1 receptor”. The Cmax in data set [2] worked out at 85.5 nM; in data set [3], 1420 nM. Also, the AUC(0-t) in data set [2] (24-hour oral exposure) was 0.234 µM·h; in data set [3] (24-hour oral exposure), 12.8 µM·h. The bioavailability in data set [2] (setting [6]) was 6.6%; in data set [3] (setting [6]), 22.1%.
On to `O=C(O)c1cc2c(nc(CN3CC=C(c4cccc(OCc5ccc(Cl)cc5F)n4)CC3)n2C[C@@H]2CCO2)s1` [crystal Form E], for which the Crystal form result is “crystal Form E” in data set [4] (40° C., Day 5); “crystal Form E” in data set [4] (40° C., Day 15); “crystal Form E” in data set [4] (40° C., Month 1); “crystal Form E” in data set [4] (40° C., Month 2); “crystal Form E” in data set [4] (60° C., Day 5); “crystal Form E” in data set [4] (60° C., Day 15). Moreover, the Crystal form entry in data set [4] (60° C., Month 1) is “crystal Form E”; in data set [4] (60° C., Month 2), “crystal Form E”. Moreover, the “solid stability (conclusion)” value in data set [4] (fully exposed, 40° C./75% RH and 60° C./75% RH, XRPD compared with day 0) is on record as “good stability”.
For the molecule `O=C(O)c1cc2c(nc(CN3CC=C(c4cccc(OCc5ccc(Cl)cc5F)n4)CC3)n2C[C@@H]2CCO2)s1` [crystal Form A], the “crystal form before and after adsorption and desorption” value in data set [5] is recorded as “changes”. This molecule also yielded a hygroscopic weight gain in data set [5] (25° C. and 80% RH) of 2.20%.

Source of the values: patent US20250154161A1, “CRYSTAL FORMS OF THIENOIMIDAZOLE COMPOUND AND PREPARATION METHOD THEREOF” (HANGZHOU SCIWIND BIOSCIENCES CO., LTD., priority 2021, published 2025).
